Source: ChEMBL document CHEMBL4627399, “Synthesis and Structure-Activity Relationships of 5'-Aryl-14-alkoxypyridomorphinans: Identification of a μ Opioid Receptor Agonist/δ Opioid Receptor Antagonist Ligand with Systemic Antinociceptive Activity and Diminished Opioid Side Effects” (J Med Chem, 2020)
Activity calls are given as the source filed them. The calls are words filed in the database; no cut-off is given here.

Legend:
[1] = Induction of physical dependence/precipitated withdrawal in naloxone-induced CD-1 mouse assessed as overall withdrawal score at 32 mg/kg, sc administered twice daily at 9 am and 5 pm for 3 days pretreated followed by naloxone challenge on day 4 at 4 hrs post compound dose and measured for 40 mins; format: organism-based; settings: in vivo
[2] = Induction of spontaneous withdrawal in CD-1 mouse assessed as effect on number of droppings at 32 mg/kg, sc and administered twice daily at 9 am and 5 pm for 3 days and measured on day 4 for 30 mins; format: organism-based; settings: in vivo, 0.5 h
Mus musculus [3] = assay: Antinociceptive activity in CD-1 mouse at 1 to 10 mg/kg, iv measured after 15 to 90 mins by warm water tail-flick assay; format: functional, organism-based
[4] = biological target: T1, Kappa-type opioid receptor (Homo sapiens, UniProt P41145); assay: Agonist activity at human kappa opioid receptor expressed in CHO cell membranes assessed as stimulation of [35S]GTPgammaS binding incubated for 1 hr relative to […]; format: functional
[5] = Induction of spontaneous withdrawal in CD-1 mouse assessed as effect on fecal output at 32 mg/kg, sc and administered twice daily at 9 am and 5 pm for 3 days and measured on day 4 for 30 mins; format: organism-based; settings: in vivo
[6] = Induction of physical dependence in naloxone-induced CD-1 mouse assessed as increase in jumping behavior at 32 mg/kg, sc administered twice daily at 9 am and 5 pm for 3 days pretreated followed by naloxone challenge on day 4 at 4 hrs post compound dose and measured for 40 mins; format: organism-based; settings: in vivo
[7] = Reward liability in CD-1 mouse assessed as increase in conditioned place aversion at 20 mg/kg, sc administered for 5 days and measured on day 5 for 15 mins; format: ADME, organism-based; settings: in vivo, 0.25 h
Mus musculus [8] = assay: Antinociceptive activity in CD-1 mouse administered twice daily at 9 am and 5 pm for 3 days measured on day 4 by warm water tail-flick assay; format: functional
[9] = Induction of spontaneous withdrawal in naloxone-induced CD-1 mouse assessed as increase in fecal pellets at 32 mg/kg, sc administered twice daily at 9 am and 5 pm for 3 days pretreated followed by naloxone challenge on day 4 at 4 hrs post compound dose and measured for 40 mins; format: organism-based; settings: in vivo
[10] = Induction of spontaneous withdrawal in CD-1 mouse assessed as paw tremors at 32 mg/kg, sc and administered twice daily at 9 am and 5 pm for 3 days and measured on day 4 for 30 mins; format: organism-based; settings: in vivo, 0.5 h
[11] = Induction of respiratory depression in CD-1 mouse assessed as reduction in minute ventilation at 32 mg/kg, ip measured over 45 mins by plethysmography; format: organism-based; settings: in vivo
Mus musculus [12] = assay: Antinociceptive activity in naloxone induced CD-1 mouse at 32 mg/kg, sc measured over 4 hrs by warm water tail-flick assay; format: functional, organism-based
[13] = biological target: T2, Delta-type opioid receptor (Homo sapiens, UniProt P41143); assay: Antagonist activity at human delta opioid receptor expressed in CHO cell membranes assessed as reduction in SNC80-induced [35S]GTPgammaS binding preincubated for 5 mins followed by SNC80 addition and measured after 1 hr; format: functional
Mus musculus [14] = assay: Antinociceptive activity in iv dosed CD-1 mouse measured after 10 to 180 mins by warm water tail-flick assay; format: functional, organism-based
[15] = Induction of spontaneous withdrawal in CD-1 mouse assessed as ptosis at 32 mg/kg, sc and administered twice daily at 9 am and 5 pm for 3 days and measured on day 4 for 30 mins; format: organism-based; settings: in vivo, 0.5 h
[16] = biological target: T1, Kappa-type opioid receptor; assay: Displacement of [3H]-diprenorphine from human kappa opioid receptor expressed in CHO cell membranes incubated for 1 hr by competition radioligand binding assay
[17] = Induction of spontaneous withdrawal in CD-1 mouse assessed as effect on backward walking steps at 32 mg/kg, sc and administered twice daily at 9 am and 5 pm for 3 days and measured on day 4 for 30 mins; format: organism-based; settings: in vivo, 0.5 h
[18] = Reward liability in CD-1 mouse assessed as increase in conditioned place preference at 20 mg/kg, sc administered for 5 days and measured on day 5 for 15 mins; format: ADME, organism-based; settings: in vivo
[19] = Induction of spontaneous withdrawal in CD-1 mouse assessed as effect on jumping behavior at 32 mg/kg, sc and administered twice daily at 9 am and 5 pm for 3 days and measured on day 4 for 30 mins; format: organism-based; settings: in vivo, 0.5 h
[20] = biological target: T1, Kappa-type opioid receptor; assay: Agonist activity at human kappa opioid receptor expressed in CHO cell membranes incubated for 1 hr by [35S]GTPgammaS binding assay; format: functional; settings: cho
[21] = Induction of respiratory depression in CD-1 mouse assessed as reduction in respiratory rate at 32 mg/kg, ip measured over 45 mins by plethysmography; format: organism-based; settings: in vivo
[22] = Induction of spontaneous withdrawal in CD-1 mouse assessed as wet dog shakes at 32 mg/kg, sc and administered twice daily at 9 am and 5 pm for 3 days and measured on day 4 for 30 mins; format: organism-based; settings: in vivo, 0.5 h
[23] = Stability in human liver microsomes at 1 uM measured up to 60 mins by LC-MS/MS analysis; format: ADME, Microsome; settings: 1 h
[24] = biological target: T2, Delta-type opioid receptor; assay: Displacement of [3H]-diprenorphine from human delta opioid receptor expressed in CHO cell membranes incubated for 1 hr by competition radioligand binding assay
[25] = Induction of tidal volume in CD-1 mouse up to 32 mg/kg, ip administered via bolus under 5% CO2 exposure for 7 mins and measured over 45 mins by whole body plethysmography; format: organism-based; settings: in vivo
[26] = Induction of spontaneous withdrawal in naloxone-induced CD-1 mouse assessed as increase in urine output at 32 mg/kg, sc administered twice daily at 9 am and 5 pm for 3 days pretreated followed by naloxone challenge on day 4 at 4 hrs post compound dose and measured for 40 mins; format: organism-based; settings: in vivo
[27] = Induction of spontaneous withdrawal in CD-1 mouse assessed as effect on urine output at 32 mg/kg, sc administered twice daily at 9 am and 5 pm for 3 days and measured on day 4 for 30 mins; format: organism-based; settings: in vivo
[28] = Induction of respiratory depression in CD-1 mouse assessed as reduction in tidal volume at 32 mg/kg, ip measured over 45 mins by plethysmography; format: organism-based; settings: in vivo

With `COc1cccc(-c2cnc3c(c2)C[C@@]2(OCCCc4ccccc4)[C@H]4Cc5ccc(O)c6c5[C@@]2(CCN4CC2CC2)[C@H]3O6)c1` as the compound, how does the Activity [1] read?
Its Activity is “Toxic”.

And the Activity [2]?
The Activity was “Non-Toxic”.

What about the Activity (Mus musculus [3]) of the same compound?
The Activity was “Active”.

And the Emax [4]?
Its Emax is “inactive”.

And the Activity [5]?
The Activity was “Non-Toxic”.

And the Activity [6]?
Its Activity is “Non-Toxic”.

What about the Activity [7] of the same compound?
The Activity was “Non-Toxic”.

What about the ED50 (Mus musculus [8]) of the same compound?
The ED50 was 25.4 mg/kg.

What about the Activity [9] of the same compound?
Its Activity is “Toxic”.

And the Activity [10]?
Its Activity is “Non-Toxic”.

What about the Activity [11] of the same compound?
The Activity was “Non-Toxic”.

What about the Activity (Mus musculus [12]) of the same compound?
The Activity was “inactive”.

What about the IC50 [13] of the same compound?
The IC50 was 2.4 nM.

And the Activity (Mus musculus [14])?
Its Activity is “Dose-dependent effect”.

What about the Activity [15] of the same compound?
Its Activity is “Non-Toxic”.

And the Ki [16]?
Its Ki is 103 nM.

And the Activity [17]?
Its Activity is “Non-Toxic”.

And the Activity [18]?
Its Activity is “Non-Toxic”.

And the Activity [19]?
Its Activity is “Non-Toxic”.

And the EC50 [20]?
Its EC50 is “Not Active”.

What about the Activity [21] of the same compound?
Its Activity is “Non-Toxic”.

What about the Activity [22] of the same compound?
The Activity was “Non-Toxic”.

And the Stability [23]?
Its Stability is “Stable”.

And the Ki [24]?
Its Ki is 48 nM.

What about the Activity [25] of the same compound?
The Activity was “Toxic”.

And the Activity [26]?
Its Activity is “Toxic”.

What about the Activity [27] of the same compound?
Its Activity is “Non-Toxic”.

And the Activity [28]?
The Activity was “Non-Toxic”.
